From patent US20140234351A1, “CANCER VACCINES AND VACCINATION METHODS” (ImmunoCellular Therapeutics, Ltd., priority 2013, published 2014)
Where two headings read alike, the source gives them in different places. Where no end group is shown, it is not given here.

What was measured:
[1] = test system: human ovarian cancer stem cells 1031CSC; experiment: Killing assay of peptide-specific CTLs (DDAO-SE and cleaved caspase-3 method); settings: target:effector 1:10, overnight, cleaved caspase-3, FIG. 6B
Procedure: (§1) Human monocyte-derived DCs were generated using previously described methods. […] The DCs were washed and plated in 6-well plates at a concentration of 5×10^6 cells/well IFN-γ (1000 unit/ml), and then monophosphoryl lipid A (MPLA, 20-50 μg/ml) (Cat# L6895, Sigma, St. Louis) was added into the wells to mature the DC for 24 hr or 48 hrs.
(§2) In order to evaluate antigen-specific immune responses, CD8 T cells were isolated from fresh or frozen apheresis by positive selection using Dynabeads® CD8 Positive Isolation Kit (Life Technologies, Grand Island, N.Y.) and co-cultured with autologous mDC for four weeks. DCs were added weekly. Briefly, mDCs were pulsed with synthetic peptides (10 μg/μl) for 6-8 hours at 37° C., and then treated with 20 ug/ml Mitomycin C (Sigma-Aldrich, St. Louis, Mo.) for 25 min at 37° C. and 5% CO2. The mDCs (5×10^4 cells/well) were co-cultured with autologous CD8^+ T cells (5×10^5 cells/well) in a 96-well plate at 37° C., 5% CO2 in a final volume of 200 μl CTL medium (IMDM with 0.24 mM Asparagine, 0.55 mM L-Arginine, 1.5 mM L-Glutamine and 10% heat inactivated human AB serum). Half of the medium was replaced every other day by fresh culture medium containing 40 IU/ml IL-2 and 20 ng/ml IL-7, the 3rd and 4th week 40 U/ml of IL-2 was replaced with 25 ng/ml IL-15. In the culture medium, peptides could also be added to the culture well at a final concentration of 1-2 μg/ml.
(§3) DDAO-SE labeled target cells were mixed with effector cells at a 1:10 ratio in round-bottom 96 well plate and incubated overnight at 37° C., 5% CO2. The cells were washed, fixed, and permeabilized with Fix/Perm solution (BD Biosciences) and then stained for 30 minutes at 4° C. with 10 μl PE-labeled anti-cleaved caspase-3 monoclonal antibody, followed by Cyan flow cytometric analysis (Beckman Coulter, Inc).

[2] = test system: human ovarian cancer stem cells 882CSC; experiment: as above; settings: target:effector 1:10, overnight, cleaved caspase-3, FIG. 6A
Procedure: as §1, §2, §3

[3] = test system: human ovarian cancer stem cells 1031CSC
Procedure: as §1, §2, §3

[4] = test system: human ovarian cancer stem cells 882CSC
Procedure: as §1, §2, §3

[5] = Immunogenicity in vitro of A2 peptide epitopes (Table 1); type: cell-based; settings: Table 1, no method given
[6] = molecular target: HLA-A*0201 molecules on T2 cells (Homo sapiens, UniProt P04439, D140Y/D185E/D98H/E176V/E277Q/G131W/G231S/I119V/I121R/I166T/I218V/L300P/L318F/N151K/N90K/P208A/P217A/Q86G/Q94H/R138H/R169H/T345S); experiment: T2 cell binding assay of HLA-A2 peptides; settings: peptide 75 μg/ml; for binding with T2 cells (affinity in words): conclusion of Example 11; for affinity to HLA-A*0201 molecules (up-regulation of HLA-A*0201 molecules): FIG. 5A

WLPFGFILI [IL-13Rα2p345]
cytotoxicity of peptide-specific CTLs against 1031CSC [1]: efficiently recognize and lyse | cytotoxicity of peptide-specific CTLs against 882CSC [2]: efficiently recognize and lyse

CSCC[C@H](NC(=O)[C@@H](N)C(C)C)C(=O)N[C@@H](C)C(=O)NCC(=O)N[C@H](C(=O)NCC(=O)N[C@@H](CO)C(=O)N1CCC[C@H]1C(=O)N[C@@H](Cc1ccc(O)cc1)C(=O)N[C@H](C(=O)O)C(C)C)C(C)C [HER2p773]
cytotoxicity of peptide-specific CTLs against 1031CSC [3]: efficiently recognize and lyse | cytotoxicity of peptide-specific CTLs against 882CSC [4]: efficiently recognize and lyse

TLADFDPRV [EphA2p883]
cytotoxicity of peptide-specific CTLs against 1031CSC [1]: efficiently recognize and lyse | cytotoxicity of peptide-specific CTLs against 882CSC [2]: efficiently recognize and lyse

SLLFLLFSL (listed as Homo sapiens)
Immunogenicity in vitro [5]: Yes

KVLEYVIKV (listed as Homo sapiens) [MAGEA1p278]
binding with T2 cells (affinity in words) [6]: high affinity binding | Immunogenicity in vitro [5]: Yes

SLLMWITQC [NY-ESO-1p157]
Immunogenicity in vitro [5]: Yes

EIWTHSYKV (listed as Homo sapiens) [FOLR1p191]
binding with T2 cells (affinity in words) [6]: lower binding capacity | affinity to HLA-A*0201 molecules (up-regulation of HLA-A*0201 molecules) ([6]; overnight): low affinity | MFI index (relative binding affinity fluorescence index) ([6]; overnight, FIG. 5B): less than 1 | Immunogenicity in vitro [5]: Yes

VLPLTVAEV (listed as Homo sapiens) [mesothelinp531]
binding with T2 cells (affinity in words) [6]: high affinity binding | affinity to HLA-A*0201 molecules (up-regulation of HLA-A*0201 molecules) ([6]; overnight): high affinities | Immunogenicity in vitro [5]: Yes
